Measured values from patent publication US20120196824A1, “THERAPEUTIC AGENT FOR CEREBRAL INFARCTION” (MITSUBISHI TANABE PHARMA CORPORATION, priority 2009, published 2012).
Where a name gives a salt, the structure may show the parent alone.

How the values were obtained:
homocysteine synthesis = test: Measurement of homocysteine synthesis inhibitory activity in vivo (methionine-loaded mouse, plasma homocysteine); conditions: dose of 10 mg/kg, oral, BALB/c mouse; methionine water 1 hr later; plasma 30 min after; read-out: activity (homocysteine synthesis inhibitory rate)
Method: A sample was orally administered to BALB/c mouse and, 1 hr later, methionine water (50 g/L) was orally administered at a proportion of 10 ml/kg. 30 min later, blood samples were collected with heparin from the abdominal vein and plasma was obtained. The plasma homocysteine concentration was measured by treating the plasma with tributylphosphine, removing protein with 10% trichloroacetic acid (TCA), fluorescent labeling the supernatant with 4-fluoro-7-sulfobenzofurazan ammonium salt (SBD-F) under alkali conditions, and quantifying by HPLC. The homocysteine synthesis inhibitory rate of the sample was determined with the difference in the homocysteine value between methionine water-loaded animal and methionine water-unloaded animal as 100%. The detailed conditions of HPLC were as follows.
column used: Wakopak^R HandyODS 150*4.6 mm (Wako Pure Chemical Industries, Ltd.) elution condition: 1.0 ml/min elution solvent: 0.1M phosphate buffer (pH 6.0) 2% methanol wavelength: ex 385 nm em 515 nm

[1] = target: T1, Human-recombinant-S-Adenosyl-L-Homocysteine Hydrolase (Homo sapiens, UniProt P23526); test: Measurement of enzyme inhibitory activity (hydrolysis of S-Adenosyl-L-Homocysteine, HPLC); type: biochemical; conditions: S-Adenosyl-L-Homocysteine 10 μM, pH 7.2, 37° C., 15 min
T1 construct: purchased Diazyme Laboratories
T1 sequence (P23526 whole entry): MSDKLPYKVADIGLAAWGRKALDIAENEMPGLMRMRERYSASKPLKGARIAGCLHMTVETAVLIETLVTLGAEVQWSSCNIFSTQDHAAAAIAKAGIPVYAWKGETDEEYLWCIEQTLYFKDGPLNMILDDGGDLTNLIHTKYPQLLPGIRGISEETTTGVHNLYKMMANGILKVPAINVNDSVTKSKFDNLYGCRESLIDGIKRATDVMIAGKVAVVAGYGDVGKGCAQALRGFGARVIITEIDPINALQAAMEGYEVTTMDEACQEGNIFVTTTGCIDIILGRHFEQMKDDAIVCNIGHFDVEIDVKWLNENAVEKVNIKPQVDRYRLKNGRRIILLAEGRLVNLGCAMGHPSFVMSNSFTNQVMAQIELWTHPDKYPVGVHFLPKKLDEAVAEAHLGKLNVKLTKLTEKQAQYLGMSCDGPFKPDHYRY
Method: The enzyme inhibitory activity of the compounds of the Examples was measured using the hydrolysis activity of S-Adenosyl-L-Homocysteine as an index. The measurement method was modification of the method of Henry H. Richards et al. (J. Biol. Chem. 253, 4476-4480, 1978). That is, S-Adenosyl-L-Homocysteine (10 μM) and Adenosine Deaminase (Roche) (4 units) were added to 50 mM phosphate buffer (pH 7.2, containing 1 mM EDTA) with the total amount being 200 μl, and to the solution were added a test substance and then Human-recombinant-S-Adenosyl-L-Homocysteine Hydrolase (50 ng, Diazyme Laboratories) to start the reaction, and the mixture was incubated at 37° C. for 15 min. The reaction was quenched by the addition of 1N aqueous perchloric solution (20 μl), and the mixture was centrifuged under the conditions of 10000 rpm, 5 min, 4° C. The supernatant was collected, and the amount of S-Adenosyl-L-Homocysteine after the reaction was quantified by HPLC. The column used was a reversed-phase column. The detailed conditions of HPLC were as follows.
column used: Wakopak^R HandyODS 150*4.6 mm (Wako Pure Chemical Industries, Ltd.) elution condition: 1.0 ml/min elution solvent: 0.1M acetate buffer (pH 4.0) containing 10 mM 1-heptanesulfonic acid containing 4% acetonitrile wavelength: 258 nm (UV) The inhibitory rate was determined with the amount of decrease in S-Adenosyl-L-Homocysteine before and after the reaction without using the test substance as 100%.
Inhibitory rate (%)={(amount of decrease of S-Adenosyl-L-Homocysteine in the presence of test substance)/(amount of decrease of S-Adenosyl-L-Homocysteine in the absence of test substance)}×100

SMILES	inhibition in vivo at 10 mg/kg (homocysteine synthesis)	IC50 [1]
CCNCCNC(=O)CN(CC(=O)N(C)N1Cc2ccccc2C1)c1ccc(-c2nc(C)no2)cc1C [Example 229, N^2-{2-[1,3-dihydro-2H-isoindol-2-yl(methyl)amino]-2-oxoethyl}-N^2-[2-methyl-4-(3-methyl-1,2,4-oxadiazol-5-yl)phenyl]-N^1-[2-(ethylamino)ethyl]glycinamide]	≥ 40%	0.035 µM
CCNCCNC(=O)CN(CC(=O)N(C)N1Cc2ccccc2C1)c1cc(-c2nn(CC)c(=O)o2)ccc1C [Example 92, N^2-{2-[1,3-dihydro-2H-isoindol-2-yl(methyl)amino]-2-oxoethyl}-N^2-[5-(4-ethyl-5-oxo-4,5-dihydro-1,3,4-oxadiazol-2-yl)-2-methylphenyl]-N^1-[2-(ethylamino)ethyl]glycinamide]	≥ 40%	0.048 µM
CCN1C(=O)CCc2cc(N(CC(=O)NCCNC(C)C)CC(=O)N(C)N3Cc4ccccc4C3)c(C)cc21 [Example 176, N^2-{2-[1,3-dihydro-2H-isoindol-2-yl(methyl)amino]-2-oxoethyl}-N^2-(1-ethyl-7-methyl-2-oxo-1,2,3,4-tetrahydroquinolin-6-yl)-N^1-[2-(isopropylamino)ethyl]glycinamide]	≥ 40%	0.063 µM
Cc1ccc(C#N)cc1N(CC(=O)NCCNC(C)C)CC(=O)N(C)N1Cc2ccccc2C1 [Example 1, N^2-(5-cyano-2-methylphenyl)-N^2-{2-[1,3-dihydro-2H-isoindol-2-yl(methyl)amino]-2-oxoethyl}-N^1-[2-(isopropylamino)ethyl]glycinamide dihydrochloride]	≥ 40%	0.068 µM
CCNCCNC(=O)CN(CC(=O)N(C)N1Cc2ccccc2C1)c1cc2cnn(C)c2cc1C [Example 241, N^2-{2-[1,3-dihydro-2H-isoindol-2-yl(methyl)amino]-2-oxoethyl}-N^2-(1,6-dimethyl-1H-indazol-5-yl)-N^1-[2-(ethylamino)ethyl]glycinamide hydrochloride]	≥ 40%	0.009 µM
CCNCCNC(=O)CN(CC(=O)N(C)N1Cc2ccccc2C1)c1cc(C#N)ccc1C [Example 2, N^2-(5-cyano-2-methylphenyl)-N^2-{2-[1,3-dihydro-2H-isoindol-2-yl(methyl)amino]-2-oxoethyl}-N^1-[2-(ethylamino)ethyl]glycinamide dihydrochloride]	≥ 40%	0.092 µM
CCNCCNC(=O)CN(CC(=O)N(C)N1Cc2ccc(F)cc2C1)c1cc2cn(CC(F)F)nc2cc1C [Example 254, N^2-[2-(2,2-difluoroethyl)-6-methyl-2H-indazol-5-yl]-N^2-{2-[(5-fluoro-1,3-dihydro-2H-isoindol-2-yl)(methyl)amino]-2-oxoethyl}-N^1-[2-(ethylamino)ethyl]glycinamide hydrochloride]	20 to 40%	–
CCNCCNC(=O)CN(CC(=O)N(C)N1Cc2ccccc2C1)c1cc(C(C)=O)ccc1C [57 (2HCl salt)]	≥ 40%	–
CCNCCNC(=O)CN(CC(=O)N(C)N1Cc2ccccc2C1)c1ccc(-c2cnn(C)c2)cc1C [Example 136, N^2-{2-[1,3-dihydro-2H-isoindol-2-yl(methyl)amino]-2-oxoethyl}-N^2-[2-methyl-4-(1-methyl-1H-pyrazol-4-yl)phenyl]-N^1-[2-(ethylamino)ethyl]glycinamide trihydrochloride]	≥ 40%	–
Cc1nnc(-c2ccc(C)c(N(CC(=O)NCCNC(C)C)CC(=O)N(C)N3Cc4ccccc4C3)c2)s1 [Example 105, N^2-{2-[1,3-dihydro-2H-isoindol-2-yl(methyl)amino]-2-oxoethyl}-N^2-[2-methyl-5-(5-methyl-1,3,4-thiadiazol-2-yl)phenyl]-N^1-[2-(isopropylamino)ethyl]glycinamide dihydrochloride]	20 to 40%	–
CCNCCNC(=O)CN(CC(=O)N(C)N1Cc2ccc(OC)cc2C1)c1cc(-c2noc(C)n2)ccc1C [Example 24, N^2-{2-[(5-methoxy-1,3-dihydro-2H-isoindol-2-yl)(methyl)amino]-2-oxoethyl}-N^2-[2-methyl-5-(5-methyl-1,2,4-oxadiazol-3-yl)phenyl]-N^1-[2-(ethylamino)ethyl]glycinamide]	20 to 40%	0.046 µM
CCNCCNC(=O)CN(CC(=O)N(C)N1Cc2ccccc2C1)c1cc(-c2nn(C)c(=O)o2)ccc1C [Example 89, N^2-{2-[1,3-dihydro-2H-isoindol-2-yl(methyl)amino]-2-oxoethyl}-N^2-[2-methyl-5-(4-methyl-5-oxo-4,5-dihydro-1,3,4-oxadiazol-2-yl)phenyl]-N^1-[2-(ethylamino)ethyl]glycinamide]	20 to 40%	0.053 µM
Cc1nc(-c2ccc(N(CC(=O)NCCNC(C)C)CC(=O)N(C)N3Cc4ccccc4C3)c(C)c2)no1 [Example 64, N^2-{2-[1,3-dihydro-2H-isoindol-2-yl(methyl)amino]-2-oxoethyl}-N^2-[2-methyl-4-(5-methyl-1,2,4-oxadiazol-3-yl)phenyl]-N^1-[2-(isopropylamino)ethyl]glycinamide]	≥ 40%	0.103 µM
Cc1nc(-c2ccc(C)c(N(CC(=O)NCCNC(C)C)CC(=O)N(C)N3Cc4ccc(F)cc4C3)c2)no1 [Example 21, N^2-{2-[(5-fluoro-1,3-dihydro-2H-isoindol-2-yl)(methyl)amino]-2-oxoethyl}-N^2-[2-methyl-5-(5-methyl-1,2,4-oxadiazol-3-yl)phenyl]-N^1-[2-(isopropylamino)ethyl]glycinamide]	≥ 40%	0.089 µM
CCNCCNC(=O)CN(CC(=O)N(C)N1Cc2ccc(F)cc2C1)c1cc2cn(C)nc2cc1C [Example 245, N^2-(2,6-dimethyl-2H-indazol-5-yl)-N^2-{2-[(5-fluoro-1,3-dihydro-2H-isoindol-2-yl)(methyl)amino]-2-oxoethyl}-N^1-[2-(ethylamino)ethyl]glycinamide hydrochloride]	20 to 40%	–
Cc1cc2c(C)noc2cc1N(CC(=O)NCCNC(C)C)CC(=O)N(C)N1Cc2ccccc2C1 [Example 184, N^2-{2-[1,3-dihydro-2H-isoindol-2-yl(methyl)amino]-2-oxoethyl}-N^2-(3,5-dimethyl-1,2-benzisoxazol-6-yl)-N^1-[2-(isopropylamino)ethyl]glycinamide]	≥ 40%	0.037 µM
CCNCCNC(=O)CN(CC(=O)N(C)N1Cc2ccccc2C1)c1cc2onc(C)c2cc1C [Example 185, N^2-{2-[1,3-dihydro-2H-isoindol-2-yl(methyl)amino]-2-oxoethyl}-N^2-(3,5-dimethyl-1,2-benzisoxazol-6-yl)-N^1-[2-(ethylamino)ethyl]glycinamide]	≥ 40%	0.008 µM
CCNCCNC(=O)CN(CC(=O)N(C)N1Cc2ccc(F)cc2C1)c1cc2nn(CC(F)F)cc2cc1C [Example 268, N^2-[2-(2,2-difluoroethyl)-5-methyl-2H-indazol-6-yl]-N^2-{2-[(5-fluoro-1,3-dihydro-2H-isoindol-2-yl)(methyl)amino]-2-oxoethyl}-N^1-[2-(ethylamino)ethyl]glycinamide hydrochloride]	< 20%	–
CCNCCNC(=O)CN(CC(=O)N(C)N1Cc2ccccc2C1)c1ccc(-c2nc(C(=O)N(C)C)cs2)cc1C [Example 304, N^2-{2-[1,3-dihydro-2H-isoindol-2-yl(methyl)amino]-2-oxoethyl}-N^2-[4-{4-[(dimethylamino)carbonyl]-1,3-thiazol-2-yl}-2-methylphenyl]-N^1-[2-(ethylamino)ethyl]glycinamide dihydrochloride]	≥ 40%	–
Cc1ccc(-c2nn(C)c(=O)o2)cc1N(CC(=O)NCCNC(C)C)CC(=O)N(C)N1Cc2ccccc2C1 [Example 88, N^2-{2-[1,3-dihydro-2H-isoindol-2-yl(methyl)amino]-2-oxoethyl}-N^2-[2-methyl-5-(4-methyl-5-oxo-4,5-dihydro-1,3,4-oxadiazol-2-yl)phenyl]-N^1-[2-(isopropylamino)ethyl]glycinamide]	20 to 40%	0.043 µM
